According to patent US20130331353A1, “CELL-PERMEABLE VARIANTS OF TREHALOSE AND METHODS FOR THE PROTECTION OF LIVING CELLS” (UNION COLLEGE, priority 2012, published 2013):

Tested on: Jurkat cells
Assay: Survival of Jurkat cells after cryopreservation (Trypan blue staining, automated cell counter)
Type: cell-based, human
Details: Jurkat cells incubated 24 hours (50-200 μM Compound 2, with or without 200 mM Tre), slowly frozen at −80° C., thawed quickly; FIG. 2
Description: Fully acetylated Tre (Compound 2, FIG. 1) has been synthesized, and incubated with Jurkat cells, a human T-cell line.
In accordance with a method of the present invention, mammalian cells are incubated with a solution containing cell-permeable variants of Tre. Preferably, the incubation time is at least 24 hours, more preferably, 24 to 96 hours, and most preferably about 48 hours. The cells are then frozen, preferably to about −80° C. or colder and thawed. Suitable freezing techniques include freezing the cells slowly, using for example a cryo 1° C. freezing container (“Mr. Frosty”), and freezing the cells quickly, for example, by plunging them into liquid nitrogen. Preferably, the frozen cells are thawed quickly, but they may also be thawed slowly. The % cell survival is measured, preferably using Trypan blue staining and an automated cell counter. […]
Jurkat cells were incubated for 24 hours with each of the following solutions: 0 mM Tre, 200 mM Tre, 50 μM Compound 2, 100 μM Compound 2, 200 μM Compound 2, 50 μM Compound 2+200 mM Tre, 100 μM Compound 2+200 mM Tre, and 200 μM Compound 2+200 mM Tre. The cells were then slowly frozen at −80° C. using a cryo 1° C. freezing container (“Mr. Frosty”) and thawed quickly. % cell survival was measured using Trypan blue staining and automated cell counter.

CC(=O)OCC1OC(OC2OC(COC(C)=O)C(OC(C)=O)C(OC(C)=O)C2OC(C)=O)C(OC(C)=O)C(OC(C)=O)C1OC(C)=O (stereo not shown) [Compound 2, fully acetylated trehalose]
survival after freezing and thawing: improved survival
